13 compounds from US20230416245A1, “ADENOSINE ANALOGS FOR THE TREATMENT OF DISEASE” (BIOINTERVENE, INC., priority 2020, published 2023) can be followed below.

The target of the experiment is ADORA3 (Homo sapiens (Human), UniProt P0DMS8). As to the kind of experiment: Intracellular calcium release assay (FLIPR). In kind it is cell-based. To be noted: for EC50: CHO-K1 cells, Fluo-4, top concentration 10 μM, read-out: Cell Calcium Assay EC50; for Cell Calcium Efficacy (%): percentage of the response to NECA. Here is the method: Example 32: Intracellular Calcium Release Assay
ADORA3, sequence (P0DMS8 whole entry): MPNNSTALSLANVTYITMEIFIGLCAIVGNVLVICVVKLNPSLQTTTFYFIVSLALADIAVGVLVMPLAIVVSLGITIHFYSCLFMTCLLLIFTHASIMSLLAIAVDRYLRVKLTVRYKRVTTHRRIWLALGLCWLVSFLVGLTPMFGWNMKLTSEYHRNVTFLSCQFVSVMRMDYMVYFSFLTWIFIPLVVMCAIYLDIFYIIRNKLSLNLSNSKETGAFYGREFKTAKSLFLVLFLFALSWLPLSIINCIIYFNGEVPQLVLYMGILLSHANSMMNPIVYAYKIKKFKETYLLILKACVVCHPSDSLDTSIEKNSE
Cell Culture: The table below lists the cell lines used that stably express the 4 subtypes of adenosine receptors, along with the growth medium used for each:
For experiments with the ADORA1- and ADORA3-expressing cells, the medium was aspirated and the cells washed twice with 10 mL DPBS. Two mL of trypsin was added and incubated at 37° C. for 1 minute. Then 10 mL of platting media was added to terminate the digestion and 1 mL of the solution was taken out for cell counting. ADORA2A- and ADORA2B-expressing cells were thawed rapidly in a 37° C. water bath. Cell suspensions were transferred to 50 mL conical tubes. Plating media was added to the 10 mL mark and then 1 mL taken out for cell counting. The 50 mL tubes containing the various types of cells were centrifuged at 1000 g. Then the supernatants were aspirated, being careful not to aspirate the cells. The cell pellets were resuspended in 3-5 mL platting media, then 0.5 mL was taken out for cell counting. Then the cell suspension was diluted to 1×10^6 cells/mL (20,000 cells per 20 μL per well) in platting medium, and cells were seeded into 384-well cell plates (Greiner-781946). The 384-well cell plate was placed in a 37° C./5% CO2 incubator (Thermo-371, Thermo Scientific) for 16-20 hours.
Preparation of the intracellular calcium imaging agent (Fluo-4 Direct™ Calcium Assay Kit, Invitrogen-F10471, Thermo Scientific): One mL of FLIPR Assay Buffer was added to 77 mg probenecid to make a 250 mM solution, which was used fresh for each day. One vial of Fluo-4 Direct™ crystals was thawed and 10 mL of FLIPR Assay Buffer was added to the vial. 0.2 mL of probenecid was added to each 10 mL vial of Fluo-Direct™ solution, such that the final assay concentration was 2.5 mM. It was vortexed, left to stand >5 min and protected from light. The dye was prepared fresh each day.
Compound Preparation: Compound plates were prepared as follows. First, the test compound was diluted to prepare a 2 mM solution and then 10-point 3-fold serial dilutions were made using ECHO (ECHO 555, LabCyte), then 900 nL was transferred to the compound plate. For all targets, the final top concentration of the test compound was […]. For agonist reference compounds, 10-point and 3-fold serial dilutions were made, then 900 nL was transferred to the assay plate. Then 30 μL of assay buffer was added to the compound plate and then the plate was centrifuged at 1000 rpm for 1 min.
FLIPR Assay: Cell plates were removed from the incubator, to which were added 20 μL 2×Fluo-4 Direct™ solution, then the plates were reincubated in a 5% CO2, 37° C. incubator for 50 min and at RT for 10 min. To run the protocol on the Fluorescent Imaging Plate Reader (FLIPR) TETRA (MD-FT0249, Molecular Devices, Inc.), 10 μL of assay buffer was transferred from the 384-well plate (Greiner-781280) to the cell plates and then the fluorescence signal was read. Then 10 μL of compound solution was transferred from the compound plate to the cell plates and the fluorescence signal was read. The “Max-Min” was calculated, starting from Read 91 to the maximum allowed. For agonists, activation %=(RLU−LC)/(HC−LC)*100, based on the following: RLU=relative light unit, 91 to maximum allowed signal; HC=average signal of the high concentration of agonist; LC=average signal of DMSO well. The data were fitted using GraphPad Prism 5, using the model “log(agonist) vs. response—Variable slope” to determine the EC50 value. The receptor efficacy of the test compound relative to the agonist NECA was calculated as a percentage (%) of the response to […]. Table 10 includes EC50 values for compounds described herein.
In general terms: Calcium assays in cells follow changes in intracellular calcium, usually with a dye or a luminescent sensor.

As for `Cc1cc(NCC(F)F)c2ncn([C@H]3[C@H](O)[C@H](O)[C@@H]4C[C@@H]43)c2n1` [Compound 47, (1R,2R,3S,4R,5S)-4-(7-((2,2-difluoroethyl)amino)-5-methyl-3H-imidazo[4,5-b]pyridin-3-yl)bicyclo[3.1.0]hexane-2,3-diol], the EC50 was 51.2 nM and the “Cell Calcium Efficacy (%)” value was 33.1%.

As for `O[C@@H]1[C@H](O)[C@@H]2C[C@@H]2[C@H]1n1cnc2c(NCC(F)F)nc(C3CC3)nc21` [Compound 58], the EC50 was found to be 25.4 nM and the “Cell Calcium Efficacy (%)” value is on record as 14.2%.

As to `O[C@@H]1[C@H](O)[C@@H]2C[C@@H]2[C@H]1n1cnc2c(NCCF)nc(Cl)nc21` [Compound 36, (1R,2R,3S,4R,5S)-4-(2-chloro-6-((2-fluoroethyl)amino)-9H-purin-9-yl)bicyclo[3.1.0]hexane-2,3-diol], the EC50 was 9.2 nM and the “Cell Calcium Efficacy (%)” value came out at 44.9%.

As for `Cc1cc(COc2ccc(Cl)cc2CNc2cc(Cl)nc3c2ncn3[C@H]2[C@H](O)[C@H](O)[C@@H]3C[C@@H]32)on1` [Compound 75, (1R,2R,3S,4R,5S)-4-(5-chloro-7-((5-chloro-2-((3-methylisoxazol-5-yl)methoxy)benzyl)amino)-3H-imidazo[4,5-b]pyridin-3-yl)bicyclo[3.1.0]hexane-2,3-diol], the EC50 is at least 10000 nM and the “Cell Calcium Efficacy (%)” value turned out to be 1.7%.

Take `CCNc1nc(Cl)nc2c1ncn2[C@H]1[C@H](O)[C@H](O)[C@]2(C(F)F)C[C@H]12` [Compound 53, (1S,2R,3S,4R,5S)-4-(2-chloro-6-(ethylamino)-9H-purin-9-yl)-1-(difluoromethyl)bicyclo[3.1.0]hexane-2,3-diol]: the EC50 was at least 10000 nM and the “Cell Calcium Efficacy (%)” value was 0.6%.

Regarding `O[C@@H]1[C@H](O)[C@@H]2C[C@@H]2[C@H]1n1cnc2c(NCCF)cc(Cl)nc21` [Compound 41, (1R,2R,3S,4R,5S)-4-(5-chloro-7-((2-fluoroethyl)amino)-3H-imidazo[4,5-b]pyridin-3-yl)bicyclo[3.1.0]hexane-2,3-diol], the EC50 amounted to 36.7 nM and the “Cell Calcium Efficacy (%)” value was determined as 31.3%.

`Cc1cc(NCCF)c2ncn([C@H]3[C@H](O)[C@H](O)[C@@H]4C[C@@H]43)c2n1` [Compound 48, (1R,2R,3S,4R,5S)-4-(7-((2-fluoroethyl)amino)-5-methyl-3H-imidazo[4,5-b]pyridin-3-yl)bicyclo[3.1.0]hexane-2,3-diol]: the EC50 was 37.6 nM and the “Cell Calcium Efficacy (%)” value is listed as 13.1%.

For the compound `O[C@@H]1[C@H](O)[C@@H]2C[C@@H]2[C@H]1n1cnc2c(NCC(F)(F)F)nc(Cl)nc21` [Compound 37, (1R,2R,3S,4R,5S)-4-(2-chloro-6-((2,2,2-trifluoroethyl)amino)-9H-purin-9-yl)bicyclo[3.1.0]hexane-2,3-diol], the EC50 was determined as 12.8 nM and the “Cell Calcium Efficacy (%)” value was 49.4%.

Consider `Cc1cc(NCc2cc(F)ccc2F)c2ncn([C@H]3[C@H](O)[C@H](O)[C@@H]4C[C@@H]43)c2n1` [Compound 50, (1R,2R,3S,4R,5S)-4-(7-((2,5-difluorobenzyl)amino)-5-methyl-3H-imidazo[4,5-b]pyridin-3-yl)bicyclo[3.1.0]hexane-2,3-diol], for which the EC50 was found to be 54 nM and the “Cell Calcium Efficacy (%)” value is recorded as 12.3%.

`O[C@@H]1[C@H](O)[C@@H]2C[C@@H]2[C@H]1n1cnc2c(NCC(F)F)cc(C3CC3)nc21` [Compound 78]: the EC50 was 110 nM and the “Cell Calcium Efficacy (%)” value turned out to be 7.2%.

Consider `CCNc1cc(C)nc2c1ncn2[C@H]1[C@H](O)[C@H](O)[C@@H]2C[C@@H]21` [Compound 49, (1R,2R,3S,4R,5S)-4-(7-(ethylamino)-5-methyl-3H-imidazo[4,5-b]pyridin-3-yl)bicyclo[3.1.0]hexane-2,3-diol], for which the EC50 came to 17.1 nM and the “Cell Calcium Efficacy (%)” value was 6.8%.

With `O[C@@H]1[C@H](O)[C@@H]2C[C@@H]2[C@H]1n1cnc2c(NCC(F)(F)F)cc(Cl)nc21` [Compound 42, (1R,2R,3S,4R,5S)-4-(5-chloro-7-((2,2,2-trifluoroethyl)amino)-3H-imidazo[4,5-b]pyridin-3-yl)bicyclo[3.1.0]hexane-2,3-diol], the EC50 came out at 43.4 nM and the “Cell Calcium Efficacy (%)” value stood at 45.8%.

Consider `CCNc1cc(Cl)nc2c1ncn2[C@H]1[C@H](O)[C@H](O)[C@@H]2C[C@@H]21` [Compound 43, (1R,2R,3S,4R,5S)-4-(5-chloro-7-(ethylamino)-3H-imidazo[4,5-b]pyridin-3-yl)bicyclo[3.1.0]hexane-2,3-diol], for which the EC50 is 5.1 nM and the “Cell Calcium Efficacy (%)” value came out at 50.3%.

For orientation: EC50 means the concentration giving half of the maximal effect.
